Assay [1] deals with rhabdomyosarcoma cell line RD. The assay can be described thus: cell growth test based on Methyl violet staining, RD. The note with it: RD cells; for anti-proliferative activity (cell growth in percentage with respect to the vehicle control): 10 microM, 5 days of incubation, compared with Vismodegib (FIG. 3). As to the method:
(§1) FIG. 3 represents the effects (in percentage with respect to the vehicle control DMSO) of five compounds according to formula (I) (IUCT-0460, IUCT-0462, IUCT-0463, IUCT-0467, IUCT-0469) and the reference compound Vismodegib on cell growth of RD rhabdomyosarcoma cells after 5 day incubation (mean+/−SD). All compounds were used at a concentration of 10 microM. Statistical analysis was performed using ANOVA. As statistical differences were observed (p=0), the pairwise comparison against the vehicle control was made using the Tukey test. Notation: ***=statistically-significant difference with a p-value<0.001, **=p-value<0.01 and *=p-value<0.05.
(§2) The measurements were taken using an in vitro test to measure cell growth based on Methyl violet staining after 5 days of incubation with the aforementioned drugs or control vehicle (DMSO). The procedure was carried out in a 96-well plate and cells were fixed for 30 minutes with 4% paraformaldehyde (PFA) at room temperature. After 3 washes with phosphate-buffered saline (PBS), cells were stained for 30 minutes at room temperature with Methyl violet (dilution 1/25 of a stock solution made with 1.5% w/v in PBS). After 5 washes, and the addition of acetic acid (15% in water), plates were read in a spectrophotometer at 590 nm. All conditions were tested in 8 independent wells and results expressed as a mean of all replicates (FIG. 3).
Additional measurements using the same procedure were made specifically for the compound IUCT-0463 to obtain a dose-response curve from 1 to 50 μM in the cell line RD.

In assay [2] the test system is rhabdomyosarcoma cell line RH4. The assay can be described thus: cell growth test based on Methyl violet staining, RH4. The note with it: for anti-proliferative activity (cell growth in percentage with respect to vehicle-treated cells): 10 microM, 5 days of incubation, compared with Vismodegib (FIG. 1). As to the method: as §1, with “FIG. 1” for “FIG. 3”, “effects in” for “effects (in”, “to vehicle-treated cells (DMSO)” for “to the vehicle control DMSO)”, “of RH4” for “of RD”
as §2, with “1).” for “3).”
Additional measurements using the same procedure were made specifically for the compound IUCT-0463 to obtain a dose-response curve from 1 to 50 μM in the cell line RH4.

Assay [3] concerns panel of cancer cell lines (RD, RH4, RH30, SKNBE2, SKNAS, U373MG, SKES1, TC71, PC3, HeLa, A549, MDA-MB231, HCT116). The assay can be described thus: cell growth test based on Methyl violet staining, panel of cancer cell lines. The note with it: panel of 13 cancer cell lines, 10 microM, 5 day incubation (FIG. 5). The protocol:
The cell lines analyzed are as follows: RD, RH4 and RH30 (rhabdomyosarcoma, RMS); SKNBE2 and SKNAS (neuroblastoma, NBL); U373MG (glioblastoma, GBL); SKES1 and TC71 (Ewing's sarcoma, EWING); PC3 (prostate cancer, PC); HeLa (epitheloid cervix carcinoma, ECC); A549 (lung cancer, LC); MDA-MB231 (breast cancer, BC) and HCT116 (colorectal cancer, CC). Statistical analysis was performed using ANOVA. As statistical differences were observed (p=0), the pairwise comparison against the vehicle control was made using the Tukey test. Notation: ***=statistically-significant difference with a p-value<0.001, **=p-value<0.01 and *=p-value<0.05.
With the compound showing a better cell growth reduction (IUCT-0463), additional tests were performed with the aim of studying the possible application of this family of compounds to other cancers. The procedure was carried out in a 96-well plate and cells were fixed for 30 minutes with 4% paraformaldehyde (PFA) at room temperature. After 3 washes with phosphate-buffered saline (PBS), cells were stained for 30 minutes at room temperature with Methyl violet (dilution 1/25 of a stock solution made with 1.5% w/v in PBS). After 5 washes, and the addition of acetic acid (15% in water), plates were read in a spectrophotometer at 590 nm.

For the compound `COc1ccccc1-c1ccc(N2CCCC(NS(=O)(=O)c3cc(Cl)c(Cl)s3)C2=O)c(F)c1` (stereo not shown) [IUCT-0460, 4,5-Dichloro-N-(1-(3-fluoro-2′-methoxy-[1,1′-biphenyl]-4-yl)-2-oxopiperidin-3-yl)thiophene-2-sulfonamide], the “anti-proliferative activity (cell growth in percentage with respect to the vehicle control)” value in assay [1] is on record as “better anti-proliferative activity than the reference compound Vismodegib”. Also, the “anti-proliferative activity (cell growth in percentage with respect to vehicle-treated cells)” value in assay [2] is listed as “better anti-proliferative activity than the reference compound Vismodegib”.

With `COc1ccccc1-c1ccc(N2CCCC(NS(=O)(=O)c3ccc4c(c3)OCO4)C2=O)c(F)c1` (stereo not shown) [IUCT-0462, N-(1-(3-fluoro-2′-methoxy-[1,1′-biphenyl]-4-yl)-2-oxopiperidin-3-yl)benzo[d][1,3]dioxole-5-sulfonamide], the “anti-proliferative activity (cell growth in percentage with respect to the vehicle control)” value in assay [1] is on record as “better anti-proliferative activity than the reference compound Vismodegib”. For the same compound, the “anti-proliferative activity (cell growth in percentage with respect to vehicle-treated cells)” value in assay [2] is “better anti-proliferative activity than the reference compound Vismodegib”.

For `COc1ccccc1-c1ccc(N2CCCC(NS(=O)(=O)c3ccc(-c4ccccn4)s3)C2=O)c(F)c1` (stereo not shown) [IUCT-0463, N-(1-(3-fluoro-2′-methoxy-[1,1′-biphenyl]-4-yl)-2-oxopiperidin-3-yl)-5-(pyridin-2-yl)thiophene-2-sulfonamide], the “anti-proliferative activity (cell growth in percentage with respect to the vehicle control)” value in assay [1] was “better anti-proliferative activity than the reference compound Vismodegib”. Further, the “anti-tumor activity, dose-response curve” value in assay [1] (dose-response curve from 1 to 50 μM, compared with Vismodegib (FIG. 4)) is on record as “clear improvement of the anti-tumor activity when compared to the reference compound Vismodegib”; in assay [2] (RH4 cells, dose-response curve from 1 to 50 μM, compared with Vismodegib (FIG. 2)), “clear improvement of the anti-tumor activity when compared to the reference compound Vismodegib”. Also, the “cell proliferation (cell growth in percentage with respect to the vehicle control)” value in assay [3] is listed as “remarkable rediction of cell proliferation in the majority of the cell lines analized”. For the same compound, in assay [2], the “anti-proliferative activity (cell growth in percentage with respect to vehicle-treated cells)” value is reported as “better anti-proliferative activity than the reference compound Vismodegib”.

As for `COc1ccccc1-c1ccc(N2CCCC(N(CC(=O)N3CCOCC3)S(=O)(=O)c3ccc4c(c3)OCO4)C2=O)c(F)c1` (stereo not shown) [IUCT-0467, N-(1-(3-fluoro-2′-methoxy-[1,1′-biphenyl]-4-yl)-2-oxopiperidin-3-yl)-N-(2-morpholino-2-oxoethyl)benzo[d][1,3]dioxole-5-sulfonamide], the “anti-proliferative activity (cell growth in percentage with respect to the vehicle control)” value in assay [1] is on record as “better anti-proliferative activity than the reference compound Vismodegib”. Also, the “anti-proliferative activity (cell growth in percentage with respect to vehicle-treated cells)” value in assay [2] was “better anti-proliferative activity than the reference compound Vismodegib”.

Take `CCOC(=O)CN(C1CCCN(c2ccc(-c3ccccc3OC)cc2F)C1=O)S(=O)(=O)c1ccc(-c2ccccn2)s1` (stereo not shown) [IUCT-0469, Ethyl N-(1-(3-fluoro-2′-methoxy-[1,1′-biphenyl]-4-yl)-2-oxopiperidin-3-yl)-N-((5-(pyridin-2-yl)thiophen-2-yl)sulfonyl)glycinate]: in assay [1], the “anti-proliferative activity (cell growth in percentage with respect to the vehicle control)” value was “better anti-proliferative activity than the reference compound Vismodegib”. Moreover, the “anti-proliferative activity (cell growth in percentage with respect to vehicle-treated cells)” value in assay [2] is given as “better anti-proliferative activity than the reference compound Vismodegib”.

For the origin of these results see patent US12006311B2, “Compounds for use in preventing or treating cancer” (FUNDACIÓ HOSPITAL UNIVERSITARI VALL D'HEBRON—INSTITUT DE …, priority 2018, dated 2024).
